Where no end group is shown, it is not given here.

The source of these data is patent US20200131249A1, “NOVEL PROTEINS AND USE THEREOF” (EVOLVERITAS KFT., priority 2017, published 2020).

For one assay, the system named is classical pathway. Nature of the assay: C3 deposition ELISA with diluted rat serum on IgG coated plates. It is filed as biochemical. The following applies: final concentrations as high as 50 μM; 50-fold diluted rat serum. How it is done:
ELISA-based complement classical and alternative pathway activation tests were performed on IgG or lipopolysaccharide (LPS) coated plates, respectively, using diluted individual (not pooled) rat serum. In these tests, inhibitory efficiencies of the protein of SEQ ID NO: 14 and SGMI-2 were compared and C3 deposition was used for quantification of the complement activation.
96-well Greiner high binding ELISA plates were coated with 100 μl/well 10 μg/ml IgG (Sigma—12511) dissolved in coating buffer (50 mM sodium-carbonate pH 9.6) overnight at 4° C. Control wells contained coating buffer alone. Wells were blocked for 2 h at 37° C. with 200 μl/well 10 mg/ml bovine serum albumin (BSA) dissolved in 50 mM Tris pH 7.4, 150 mM NaCl, 0.1% Tween-20 buffer. Serial dilutions of the inhibitors were made in 10 mM HEPES pH 7.4, 150 mM NaCl, 5 mM CaCl2, 5 mM MgCl2, 0.1% Tween-20 buffer (serum dilution buffer). Rat serum was thawed on ice and diluted 25-fold in serum dilution buffer. The diluted inhibitor samples were mixed with the 25-fold diluted rat serum in 1:1 volume ratio resulting in 50-fold diluted rat serum-inhibitor samples. The samples were incubated at room temperature for 30 minutes. […] The 490 nm absorbance values were recorded using a PerkinElmer EnSpire multimode plate reader. Four parallels were measured for each data point.
Background: ELISA stands for enzyme-linked immunosorbent assay.

Another assay has as its system lectin pathway. As to the kind of experiment: Lectin pathway activation tests in rat serum, all three assays (C3, C4, C5b-9 deposition). Format: biochemical. The following applies: result in words. How it is done: ELISA-based complement lectin pathway activation tests were performed on mannan coated plates using diluted individual (not pooled) rat serum. In these tests, inhibitory efficiencies of the protein of SEQ ID NO: 14 and SGMI-2 were compared. Three different assays were conducted that detect the deposition of C3, C4 or the terminal complement antigen C5b-9, respectively.
96-well Greiner high binding ELISA plates (cat. no. 655061) were coated with 100 μl/well 10 μg/ml mannan dissolved in coating buffer (50 mM sodium-carbonate pH 9.6) overnight at 4° C. Control wells contained coating buffer alone. Wells were blocked for at least 1 h at 37° C. with 200 μl/well
10 mg/ml bovine serum albumin (BSA) dissolved in 50 mM Tris pH 7.4, 150 mM NaCl, 0.1% Tween-20 buffer. Serial dilutions of the inhibitors were made in 10 mM HEPES pH 7.4, 150 mM NaCl, 5 mM CaCl2, 5 mM MgCl2, 0.1% Tween-20 buffer (serum dilution buffer). Rat serum was thawed on ice and diluted 35-fold in serum dilution buffer. […]
50 mM Tris pH 7.4, 150 mM NaCl, 5 mM CaCl2, 0.1% Tween-20 buffer (washing buffer) and 100 μl of the serum-inhibitor samples were transferred onto the plate. […] The 490 nm absorbance values were recorded using a PerkinElmer EnSpire multimode plate reader. Four parallels were measured for each data point. […]

As to “SEQ ID NO: 14: TFPI-D2 variant protein with inhibitor loop PCRAVKR (SEQ ID NO: 4) (KPDFCFLEEDPGPCRAVKRRYFYNNQTKQCERFKYGGCLGNMNNFETLEECKNICEDG; ends and bridges not checked; cysteine pairing not given here)”, in the assay with classical pathway, the “inhibition of the classical pathway in rat serum” value is “neither the protein of SEQ ID NO: 14 nor SGMI-2 were able to inhibit”. In the assay on lectin pathway, the “inhibition of the lectin pathway in rat serum” value is reported as “completely inhibit”.

Take “SGMI-2 (GSGEVTCEPGTTFKDKCNTCRCGSDGKSAVCTKLWCNQ; Synthetic protein of insect origin) [reference compound]”: the “inhibition of the classical pathway in rat serum” value in the assay on classical pathway is recorded as “neither the protein of SEQ ID NO: 14 nor SGMI-2 were able to inhibit”. The “inhibition of the lectin pathway in rat serum” value in the assay with lectin pathway is reported as “completely inhibit”.
